This passage reports IC50 and Activity results from ChEMBL document CHEMBL6153141, “Design, Synthesis, and Mechanism Study of Novel BMX Inhibitors Based on the Core of 1,3,5-Triazin-2-Amine for the Treatment of Gastric Carcinoma” (J Med Chem, 2025).

Activity calls are given as the source filed them. The rule behind the calls is not given here.

In general, IC50 refers to the midpoint of a concentration-inhibition curve.

For data set [1], the system named is NCI-H1975. The experiment in a line: cells. The conditions noted are these: Homo sapiens, NCI-H1975, 72 h.
Description: Anticancer activity against human NCI-H1975 cells assessed as inhibition of cell proliferation incubated for 72 hrs by MTT assay
In data set [2] the test system is HCC827. Kind of data set: cells. The conditions noted are these: Homo sapiens, HCC827, 72 h.
Description: Anticancer activity against human HCC827 cells assessed as inhibition of cell proliferation incubated for 72 hrs by MTT assay
The subject of data set [3] is PC-3. The experiment in a line: cells. The conditions noted are these: Homo sapiens, PC-3, 72 h.
Description: Anticancer activity against human PC-3 cells assessed as inhibition of cell proliferation incubated for 72 hrs by MTT assay
Data set [4] concerns NCI-H460. Kind of data set: cells. The conditions noted are these: Homo sapiens, NCI-H460, 72 h.
Description: Anticancer activity against human NCI-H460 cells assessed as inhibition of cell proliferation incubated for 72 hrs by MTT assay
Data set [5] deals with CWR22R. Kind of data set: cells. The conditions noted are these: Homo sapiens, 22Rv1, 72 h.
Description: Anticancer activity against human 22Rv1 cells assessed as inhibition of cell proliferation incubated for 72 hrs by MTT assay
Data set [6] concerns DU-145. Kind of data set: cells. The conditions noted are these: Homo sapiens, DU-145, 72 h.
Description: Anticancer activity against human DU-145 cells assessed as inhibition of cell proliferation incubated for 72 hrs by MTT assay
The test system of data set [7] is A549. Kind of data set: cells. The conditions noted are these: Homo sapiens, A549, 72 h.
Description: Anticancer activity against human A549 cells assessed as inhibition of cell proliferation incubated for 72 hrs by MTT assay
In data set [8] the test system is PC-9. The experiment in a line: cells. The conditions noted are these: Homo sapiens, PC-9, 72 h.
Description: Anticancer activity against human PC-9 cells assessed as inhibition of cell proliferation incubated for 72 hrs by MTT assay
Data set [9] has as its system 4T1. The experiment in a line: Anticancer activity against mouse 4T1 cells assessed as inhibition of cell proliferation incubated for 72 hrs by MTT assay. It counts as functional, cell-based. The conditions noted are these: 4T1, 72 h.
Data set [10] relates to HCT-116. The experiment in a line: Anticancer activity against human HCT-116 cells assessed as inhibition of cell proliferation incubated for 72 hrs by MTT assay. The data set is classed as functional, cell-based. The conditions noted are these: HCT-116, 72 h. Background: Tetrazolium dyes change colour on reduction, which living cells bring about.
Data set [11] can be described thus: Cytotoxicity against human L02 cells assessed as inhibition of cell proliferation incubated for 72 hrs by MTT assay. It counts as toxicity, cell-based.
Data set [12] concerns HeLa. Kind of data set: Anticancer activity against human HeLa cells assessed as inhibition of cell proliferation incubated for 72 hrs by MTT assay. It counts as functional, cell-based.
Data set [13] can be described thus: Cytotoxicity against human GES1 cells assessed as inhibition of cell proliferation incubated for 72 hrs by MTT assay. It counts as toxicity, cell-based.
In data set [14] the test system is HGC-27. Kind of data set: Anticancer activity against human HGC-27 cells assessed as inhibition of cell proliferation incubated for 72 hrs by MTT assay. The conditions noted are these: HGC-27, 72 h. It counts as functional, cell-based.
In data set [15] the test system is MCF7. Kind of data set: Anticancer activity against human MCF7 cells assessed as inhibition of cell proliferation incubated for 72 hrs by MTT assay. It counts as functional, cell-based. The conditions noted are these: MCF7, 72 h.
For data set [16], the system named is HONE1 cell line. Kind of data set: Anticancer activity against human HONE1 cell line assessed as inhibition of cell proliferation incubated for 72 hrs by MTT assay. The data set is classed as functional, cell-based. The conditions noted are these: HONE1, 72 h.
Data set [17] deals with AGS. Kind of data set: Anticancer activity against human AGS cells assessed as inhibition of cell proliferation incubated for 72 hrs by MTT assay. It counts as functional, cell-based.
Data set [18] relates to HGC-27. Kind of data set: Antitumor activity against human HGC-27 cells xenografted in female BALB/c nude mouse model assessed as reduction in tumor growth at 15 mg/kg/day, ip administered for 21 days relative to control. The data set is classed as functional. More on the design: scale not given: the % may be the effect or the level left. The conditions noted are these: time 21 day.

The subject of data set [19] is C6661. The experiment in a line: Anticancer activity against human C666-1 cells assessed as inhibition of cell proliferation incubated for 72 hrs by MTT assay. The data set is classed as functional, cell-based. The conditions noted are these: C6661, 72 h.
Data set [20] concerns MGC-803. Kind of data set: Anticancer activity against human MGC-803 cells assessed as inhibition of cell proliferation incubated for 72 hrs by MTT assay. It counts as functional, cell-based. The conditions noted are these: MGC-803, 72 h.
Data set [21] is described as follows: Cytotoxicity against HEK293 cells assessed as inhibition of cell proliferation incubated for 72 hrs by MTT assay. The data set is classed as toxicity, cell-based. The conditions noted are these: human.
Data set [22] can be described thus: Cytotoxicity against H9c2 cells assessed as inhibition of cell proliferation incubated for 72 hrs by MTT assay. The data set is classed as toxicity, cell-based. The conditions noted are these: rat.
The test system of data set [23] is HGC-27. Kind of data set: Antitumor activity against human HGC-27 cells xenografted in female BALB/c nude mouse model assessed as reduction in tumor weight at 15 mg/kg/day, ip administered for 21 days. The data set is classed as functional, organism-based. The conditions noted are these: time 21.0 day.
In data set [24] the test system is MDA-MB-231. Kind of data set: Anticancer activity against human MDA-MB-231 cells assessed as inhibition of cell proliferation incubated for 72 hrs by MTT assay. It counts as functional, cell-based. The conditions noted are these: MDA-MB-231, 72 h.
Data set [25] deals with HepG2. The experiment in a line: Anticancer activity against human HepG2 cells assessed as inhibition of cell proliferation incubated for 72 hrs by MTT assay. It counts as functional, cell-based. The conditions noted are these: HepG2, 72 h.
Data set [26] addresses Tyrosine-protein kinase BTK (Homo sapiens, UniProt Q06187). Kind of data set: Inhibition of BTK (unknown origin).

Sequence of Tyrosine-protein kinase BTK (Q06187 whole entry): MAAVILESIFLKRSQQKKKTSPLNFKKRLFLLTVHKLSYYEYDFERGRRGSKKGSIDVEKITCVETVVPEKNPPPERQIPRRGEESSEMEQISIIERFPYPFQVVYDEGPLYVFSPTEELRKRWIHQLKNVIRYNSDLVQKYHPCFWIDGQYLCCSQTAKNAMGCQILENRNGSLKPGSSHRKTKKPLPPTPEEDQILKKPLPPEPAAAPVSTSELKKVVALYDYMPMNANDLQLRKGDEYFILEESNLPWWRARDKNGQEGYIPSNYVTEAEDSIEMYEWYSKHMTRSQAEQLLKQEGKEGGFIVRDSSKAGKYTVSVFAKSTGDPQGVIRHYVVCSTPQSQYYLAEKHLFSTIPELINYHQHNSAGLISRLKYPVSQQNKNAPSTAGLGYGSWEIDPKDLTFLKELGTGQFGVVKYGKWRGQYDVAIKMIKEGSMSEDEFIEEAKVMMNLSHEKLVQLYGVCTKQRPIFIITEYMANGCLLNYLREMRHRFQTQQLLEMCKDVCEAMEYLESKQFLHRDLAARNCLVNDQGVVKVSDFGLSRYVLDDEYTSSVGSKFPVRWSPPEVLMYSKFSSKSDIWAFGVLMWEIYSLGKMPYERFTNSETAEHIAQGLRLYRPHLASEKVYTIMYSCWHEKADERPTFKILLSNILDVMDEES

In the case of `C=CS(=O)(=O)N1CCC[C@@H](Nc2nc(N)nc(Nc3ccc(Oc4ccccc4)cc3)n2)C1`, the IC50 is 29.8 µM in data set [1]; 5.2 µM in [2]; over 32 µM in data set [3]; over 32 µM in data set [4]; over 32 µM in data set [5]; over 32 µM in [6]. In addition, the IC50 in data set [7] and in data set [8] was over 32 µM each time.
`C=CS(=O)(=O)N1CC[C@@H](Nc2nc(N)nc(Nc3ccc(Oc4ccccc4)cc3)n2)C1`: the IC50 in data set [1] is over 32 µM; in data set [2] it was 12.6 µM; in [3] it was over 32 µM; in data set [4], over 32 µM; in data set [5], over 32 µM; in data set [6], 22.4 µM. The IC50 in data set [7] and in data set [8] was over 32 µM each time.
As to `C=CC(=O)N1CCC[C@@H](n2nc(-c3ccc(Oc4ccccc4)cc3)c3c(N)ncnc32)C1` [IBRUTINIB], the IC50 worked out at 9.3 µM in data set [9]; 17.7 µM in data set [10]; 28.1 µM in data set [12]; 16 µM in data set [14]; 29.9 µM in [15]; 5.6 µM in data set [1]. Also, the IC50 in data set [16] turned out to be 24.5 µM; in data set [17], 10.4 µM; in data set [2] it was 0.1 µM; in [3] it was 21.1 µM; in data set [4], 12.7 µM; in data set [19], 17 µM. In addition, the IC50 came out at 9.2 µM in data set [20]; 26.7 µM in data set [5]; 5.3 µM in data set [6]; 17.6 µM in data set [7]; 28.9 µM in data set [24]; 3.1 µM in data set [8]. The IC50 in data set [25] was over 32 µM. Further, the IC50 at 72 h in data set [11] is over 32 µM; in [13], 28.6 µM; in data set [21] it was over 32 µM; in [22] it was over 32 µM. Also, the Activity in data set [18] is recorded as 17.03%. Further, the outcome in data set [23] was Active.
For the molecule `C=CS(=O)(=O)N1CCC[C@@H](Nc2nc(N)nc(Nc3ccc(OCc4ccccc4)cc3)n2)C1`, the IC50 in [1] is over 32 µM; in [2] it was over 32 µM; in data set [3] it was over 32 µM; in data set [4], over 32 µM; in data set [5], over 32 µM; in data set [6], 19 µM. The IC50 in data set [7] and in data set [8] was over 32 µM throughout.
Molecule `Cn1cc(Nc2nc(N)nc(-c3cccc(-n4ccc5cc(C6CC6)ccc5c4=O)c3CO)n2)cn1` had an IC50 in [26] of 0.0042 µM.
`C=CS(=O)(=O)N1CCC[C@@H](Nc2nc(N)nc(Nc3cccc(OCc4ccccc4)c3)n2)C1`: the IC50 was 17.5 µM in data set [9]; 19.6 µM in data set [10]; 14.5 µM in data set [12]; 15.6 µM in data set [14]; 18.4 µM in data set [15]; 4.3 µM in [1]. Further, the IC50 in data set [16] turned out to be 14 µM; in data set [17], 9.2 µM; in [2], 3 µM; in data set [3], 18.6 µM; in data set [4], 14.3 µM; in data set [19] it was 18.9 µM. For the same molecule, the IC50 in [20] was 13.4 µM; in data set [5], 23.7 µM; in data set [6], 9.7 µM; in data set [7], 25 µM; in data set [24], 12.1 µM; in data set [8], 21.9 µM. Also, in [25], the IC50 is over 32 µM. Also, the IC50 at 72 h in data set [11] is over 32 µM; in [13] it was 13.9 µM; in [21] it was over 32 µM; in [22] it was over 32 µM.
Consider `C=CS(=O)(=O)N1CCC(CNc2nc(N)nc(Nc3ccc(Oc4ccccc4)cc3)n2)CC1`, for which the IC50 was over 32 µM in data set [1]; 29.3 µM in [2]; over 32 µM in data set [3]; over 32 µM in data set [4]; over 32 µM in data set [5]; over 32 µM in [6]. Moreover, the IC50 in [7] and in data set [8] was over 32 µM throughout.
